Bounds are passed on as bounds.

Data set [1] can be described thus: Plasma concentration time course after oral administration. It is filed as in vivo, rats.
Data set [2] has as its system adjuvant induced arthritis. Nature of the data set: Rat adjuvant induced arthritis model of chronic inflammation. It is filed as in vivo. The conditions noted are these: Compound A 100 mg/kg po or dexamethasone 0.1 mg/kg, daily 7 days, vs adjuvant. The protocol: Confirmation of the anti-inflammatory activity of Compound A was sought in another related biological test-the rat adjuvant induced arthritis model of chronic inflammation. This model was selected because almost all of the anti-IBD agents also show efficacy in standard arthritis models. In this model Compound A was tested at 100 mg/kg, po in a 1 % methyl cellulose suspension. On day 0 all animals received an injection of either Mycobacterium butyricum (100μL, 20 mg/mL in mineral oil) or mineral oil in the base of the tail. 14 days after this injection, rat paws were measured and all the rats were randomized into 3 treatment groups of 8. A control adjuvant group (group without further treatment), a group to be treated with dexamethasone (steroid reference) and a group to treated with Compound A. Rats received Compound A 100 mg/kg, po, or dexamethasone 0.1 mg/kg, op, daily until day 21 (7 days dosing). On day 21 rats were sacrificed. Paw measurements were taken after 5 and 7 days treatment.

For data set [3], the system named is DSS-induced colitis. Nature of the data set: Mouse Dextran Sulfate (DSS) IBD model. The data set is classed as in vivo, Swiss-Webster mice. How it is done:
Another model used for screening candidate IBD-treating compounds is the Dextran Sulfate ("DSS") model. Similar to the TNBS model, DSS induced colitis is widely used as a screening tool for IBD therapeutics. When administered orally, DSS induces IBD-like symptoms in Swiss-Webster mice. This model is used to determine the effectiveness of compounds of this invention when such compounds are administered orally (p.o.)
Individually housed 30-40 g male Swiss-Webster mice (B & K Universal, Fremont, Calif.) received 3% DSS (Sigma Chemicals, St. Louis, Mo.) in their drinking water for 7 days. All animals received food and water ad libitum.
Two groups of mice were dosed orally with either Compound A in a dosing vehicle (1% methyl cellulose, dose range of 10 mg/kg to 30 mg/kg) or dosing vehicle alone (control).
Clinical signs of colitis were assessed by a disease activity index ("DAI") consisting of changes in stool characteristics, fecal occult bleeding and body weight loss. The DAI is very similar to the Crohn's Disease Activity Index used in clinical trials to evaluate new agents to prevent/treat IBD. The DAI data were analyzed using Proc Anova in SAS with a Bonferoni post-hoc analysis, and Model 108 in WinNonlin™ (Professional Version 1.5, Scientific Consulting, Apex, NC) for the ED50 and Emax values. The wet weight and myeloperoxidase ("MPO") data (collected only on Day 7) were analyzed by Proc TTest in SAS. MPO is a marker for neutrophil infiltration.
Stool Characteristic: 0=normal, 2=loose and 4=diarrhea
Fecal Occult Blood: 0=negative, 2=positive, 4=gross bleeding
Two strips of colonic tissue/mouse
MPO activity by spectrophotometric assay

The subject of data set [4] is SK-N-MC cells. Nature of the data set: TNF-α induced flux of reactive oxygen species (DCF fluorescence). The data set is classed as cell-based. The conditions noted are these: 100 μM test compound, TNF-α 3.0 ng/mL. The source says: Oxidative stress agents (OSA) are thought to be involved in cell death in IBD and are key initiator in the cascade of events leading to apoptosis. The purpose of this study is to evaluate the effect of Compound A on cytokine-induced OSA flux.
To visualize OSA, the dye dihydrodichlorofluorescein diacetate is used. This non-fluorescent dye is taken up by cells and deacetylated to its non-fluorescent congener dihydrodichlorofluorescein (H2 DCF), which is trapped within cells. Reactive oxygen species ("ROS") react with H2 DCF, converting it to the highly fluorescent DCF. DCF fluorescence can be measured spectrofluorometrically and can also be visualized in intact cells using fluorescent microscopy.
SK-N-MC cells (American Type Culture Collection, Rockville, Md.) were plated at 250,000 cells/well in 24-well Corning plates. Following plating, the cells were maintained in retinoic acid medium (5 μM) for five days and then treated with at test compound at 100 μM for 1 hour prior to TNF-α (3.0 ng/mL) treatment. […] Following incubation, cultures were read in a cytofluorometer at 485-530 nm wavelength to detect increased DCF formation. Relative fluorescence units (RFU) values for the respective treatment conditions were compared. In this assay, higher fluorescence readings indicate ROS production. Thus, reductions in fluorescence indicates reduction in ROS production.

Data set [5] relates to human brain cell aggregates. In words: TNF-α induced apoptosis in human brain cell aggregates. Conditions: compound 1 hour prior to TNF-α, 48 h, read-out: lowest concentration shown to protect against TNF-α induced apoptosis. It is filed as cell-based. How it is done:
This test is used to evaluate the potential of Compound A to prevent TNF-α induced apoptosis.
Compound A was evaluated in an in vitro model of TNF-α induced toxicity (see Pulliam et al. J. Neurosci. Res. 21:521-530 (1998)). In this model, human brain cell aggregates from fetal tissue were treated with TNF-α which caused an apoptotic cell death. Brain cell aggregates prepared from 1 brain were incubated for 10-12 days before experimentation. Aggregates were weighed out (100 mg/flask) and aliquoted into 10 mL flasks. TNF-α was used at a concentration of 1 ng. Compound A was added 1 hour prior to the TNF-α. Experiments included untreated brain aggregates, TNF-α-treated brain aggregates, TNF-α-+test compound treated aggregates and test compound treated aggregates. After TNF-α was added, aggregates were incubated for an additional 48 h. After this time, brain aggregates were centrifuged for 5 min at 500 rpm. The supernatant was removed and the pellet was lysed for determination of programmed cell death. (Boeringer Mannheim Cell Death Kit ELISA).

Data set [6] relates to bcl-2. Nature of the data set: TNF-α induced reduction in bcl-2 (ELISA). The data set is classed as cell-based. Conditions: Compound A 100 μM (printed 100 EM); TNF-α 0.3 or 3.0. The protocol: Cytokine mediated apoptosis or programmed cell death is believed to be involved in a number of diseases including IBD. Reductions in bcl-2 are a major signal in initiation of the apoptotic cascade (see Jourd'heuil et al., J. Clin Gastroenterol. 25(Suppl):S61-S72 (1997)). The purpose of this study is to investigate the effects of Compound A on bcl-2 protein levels in a cellular model of cytokine mediated apoptosis.
SK-N-MC cells (American Type Culture Collection, Rockville, Md.) were plated at 500,000 cells/plate and treated with retinoic acid ("RA") (5 μM) for 5 days. Following RA treatment, the cells were incubated with Compound A (100 μM) for 1 hour. Cells were then treated with increasing concentrations of TNF-α (0, 0.3 and 3 ng/mL) for 6 h. The cells were harvested and lysed and bcl-2 was measured in the lysate using an ELISA assay (Boehringer Manheim). Quantification of bcl-2 was based on a standard curve and results are expressed as units/mL of bcl-2 in the sample. Results represent mean ±SE for 3 separate cultures.

As for `CC(=O)Nc1ccc(C(=O)NC(C)(C)C)cc1` [Compound A, N-tert-butyl-4-acetamidobenzamide], the “lower plasma levels in animals dosed 4 hours before TNBS” value in data set [1] (> 6 hours after TNBS, vs dosing 1 hour before) is given as “approximately 30%”. In addition, the “time after which plasma concentrations begin to decline” value in data set [1] (following oral administration) was over 7 h. For the same compound, in data set [1] (rat, plasma, following oral administration, read-out: time of peak plasma concentration), the Tmax is 3 to 4 h. The “inhibition of the inflammatory response” value in data set [2] is “significant inhibition of the inflammatory response (p<0.005)”. For the same compound, in data set [3] (Day 7), the “MPO values (in words)” value is reported as “the protection was not statistically significant” and the “wet weight (in words)” value was “the protection was not statistically significant”. Moreover, in data set [3] (oral, 10 mg/kg to 30 mg/kg), the “protective effect against DSS-induced colitis” value is recorded as “showed protective effect against DSS-induced colitis”; the “significance of protective effect by day” value is “statistically significant on days 3, 4, 5 and 7”. Moreover, in data set [3] (oral, DSS model, WinNonlin), the “estimated ED50” value is reported as “approximately 15 mg/kg” and the “estimated Emax” value was about 80 % protection. In addition, in data set [4], the “ROS induction by TNF-α” value was “significantly reduced these effects”. Further, in data set [5], the minimal effective concentration worked out at 0.01 µM. Besides, the “bcl-2 reduction induced by TNF-α” value in data set [6] was “prevented bcl-2 reduction”.

The values above are taken from patent publication US6194465A, “Benzamide therapeutics for the treatment of inflammatory bowel disease” (priority 1999, dated 2001).
